Calls of active or inactive are those of the source.
What was measured:
[1] = target: Intestinal-type alkaline phosphatase (Homo sapiens, UniProt P09923); assay: activation of human intestinal alkaline phosphatase – biochemical, dose response (AID 488873); type: functional
[2] = target: Alkaline phosphatase, placental type (Homo sapiens, UniProt P05187); assay: human placental alkaline phosphatase inhibition – biochemical, luminescence, confirmation (AID 1512); type: functional
[3] = target: T1, Leucine aminopeptidase (Plasmodium falciparum 3D7, UniProt Q8IL11); assay: P. falciparum M17LAP inhibitors, primary screen, biochemical, fluorogenic H-Leu-NHMec substrate, 1536-well (AID 1619); type: functional
T1 sequence (Q8IL11 whole entry): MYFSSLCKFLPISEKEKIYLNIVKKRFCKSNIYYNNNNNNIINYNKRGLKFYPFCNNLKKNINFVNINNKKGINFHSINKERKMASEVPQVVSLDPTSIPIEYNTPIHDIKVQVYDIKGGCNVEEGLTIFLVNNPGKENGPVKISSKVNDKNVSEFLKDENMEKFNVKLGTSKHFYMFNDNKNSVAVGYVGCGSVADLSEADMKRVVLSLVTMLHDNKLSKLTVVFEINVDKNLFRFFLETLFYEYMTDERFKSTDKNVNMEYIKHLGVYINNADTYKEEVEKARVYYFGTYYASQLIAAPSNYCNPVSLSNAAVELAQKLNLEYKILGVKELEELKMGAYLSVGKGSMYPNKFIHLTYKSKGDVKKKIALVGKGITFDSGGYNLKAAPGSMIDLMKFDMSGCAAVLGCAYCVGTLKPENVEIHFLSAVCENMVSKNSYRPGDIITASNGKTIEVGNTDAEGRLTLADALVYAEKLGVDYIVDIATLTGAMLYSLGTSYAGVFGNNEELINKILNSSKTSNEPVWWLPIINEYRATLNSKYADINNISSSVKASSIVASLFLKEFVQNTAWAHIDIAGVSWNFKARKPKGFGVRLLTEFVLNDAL

[4] = target: Large T antigen (Simian virus 40, UniProt P03070); type: functional, Betapolyomavirus macacae;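 further: Confirmatory-stage PubChem screen for compounds that inhibit SV40 T antigen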
Sequence of Large T antigen (P03070 whole entry): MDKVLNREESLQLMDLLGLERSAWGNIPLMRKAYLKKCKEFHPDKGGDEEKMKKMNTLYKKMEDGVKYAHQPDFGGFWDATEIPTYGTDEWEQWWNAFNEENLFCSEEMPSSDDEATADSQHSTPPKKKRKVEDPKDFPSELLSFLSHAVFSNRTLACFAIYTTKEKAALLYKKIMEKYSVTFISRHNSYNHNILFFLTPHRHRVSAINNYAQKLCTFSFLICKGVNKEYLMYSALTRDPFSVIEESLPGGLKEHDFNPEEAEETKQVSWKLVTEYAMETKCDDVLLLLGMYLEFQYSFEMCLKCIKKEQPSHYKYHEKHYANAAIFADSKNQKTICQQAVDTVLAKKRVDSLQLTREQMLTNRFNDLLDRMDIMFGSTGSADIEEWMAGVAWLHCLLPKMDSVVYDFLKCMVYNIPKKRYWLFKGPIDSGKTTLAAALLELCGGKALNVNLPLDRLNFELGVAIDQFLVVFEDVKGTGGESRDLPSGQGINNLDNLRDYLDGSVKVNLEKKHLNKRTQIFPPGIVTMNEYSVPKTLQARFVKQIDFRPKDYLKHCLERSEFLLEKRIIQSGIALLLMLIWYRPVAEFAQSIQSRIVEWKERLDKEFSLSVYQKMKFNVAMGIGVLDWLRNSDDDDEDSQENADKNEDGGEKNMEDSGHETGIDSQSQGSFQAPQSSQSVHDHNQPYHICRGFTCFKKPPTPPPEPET

[5] = target: T2, Alkaline phosphatase, tissue-nonspecific isozyme (Homo sapiens, UniProt P05186); assay: activation of tissue-nonspecific alkaline phosphatase – biochemical, TNAP isozyme, mouse IAP uHTS hits, selectivity assay for mouse IAP activator project, dose response (AID 488880); type: functional
T2 sequence (P05186 whole entry): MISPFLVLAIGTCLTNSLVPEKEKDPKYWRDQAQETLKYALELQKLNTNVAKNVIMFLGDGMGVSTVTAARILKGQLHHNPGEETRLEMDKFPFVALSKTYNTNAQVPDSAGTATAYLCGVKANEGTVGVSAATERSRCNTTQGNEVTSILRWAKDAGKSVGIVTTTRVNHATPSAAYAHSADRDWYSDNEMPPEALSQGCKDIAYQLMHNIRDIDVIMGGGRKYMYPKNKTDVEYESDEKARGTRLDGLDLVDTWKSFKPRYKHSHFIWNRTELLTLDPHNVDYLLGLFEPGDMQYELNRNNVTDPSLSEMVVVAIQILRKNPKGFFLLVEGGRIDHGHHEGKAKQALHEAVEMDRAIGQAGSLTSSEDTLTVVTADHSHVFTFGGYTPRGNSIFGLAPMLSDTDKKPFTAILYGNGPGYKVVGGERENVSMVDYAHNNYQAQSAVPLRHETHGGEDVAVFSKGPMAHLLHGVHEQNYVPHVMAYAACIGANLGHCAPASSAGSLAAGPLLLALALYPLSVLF

[6] = target: T2, Alkaline phosphatase, tissue-nonspecific isozyme; assay: potency against alkaline phosphatase TNAP – biochemical, luminescent, dose response, SAR follow-up (AID 1056)
[7] = target: Estrogen receptor beta (Homo sapiens, UniProt Q92731); assay: blockers of SRC-3 recruitment to ERβ – biochemical, ELISA, streptavidin-HRP readout, orthogonal assay, confirmation (AID 1060)
Sequence of Estrogen receptor beta (Q92731 whole entry): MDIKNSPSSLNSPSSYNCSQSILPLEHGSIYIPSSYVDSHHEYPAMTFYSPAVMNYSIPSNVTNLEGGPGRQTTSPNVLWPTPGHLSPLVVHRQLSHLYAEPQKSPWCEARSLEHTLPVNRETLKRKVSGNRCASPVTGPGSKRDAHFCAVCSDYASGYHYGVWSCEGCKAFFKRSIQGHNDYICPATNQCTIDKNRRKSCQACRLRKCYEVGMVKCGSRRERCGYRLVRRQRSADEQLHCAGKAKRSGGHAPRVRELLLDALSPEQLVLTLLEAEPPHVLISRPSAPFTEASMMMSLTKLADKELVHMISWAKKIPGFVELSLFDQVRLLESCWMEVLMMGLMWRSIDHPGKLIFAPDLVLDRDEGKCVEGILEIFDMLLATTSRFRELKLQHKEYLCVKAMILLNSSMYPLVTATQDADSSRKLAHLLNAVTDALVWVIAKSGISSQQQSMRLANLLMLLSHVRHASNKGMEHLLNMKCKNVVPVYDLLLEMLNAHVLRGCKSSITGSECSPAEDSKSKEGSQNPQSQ

[8] = target: Glyceraldehyde-3-phosphate dehydrogenase (Homo sapiens, UniProt P04406)
Sequence of Glyceraldehyde-3-phosphate dehydrogenase (P04406 whole entry): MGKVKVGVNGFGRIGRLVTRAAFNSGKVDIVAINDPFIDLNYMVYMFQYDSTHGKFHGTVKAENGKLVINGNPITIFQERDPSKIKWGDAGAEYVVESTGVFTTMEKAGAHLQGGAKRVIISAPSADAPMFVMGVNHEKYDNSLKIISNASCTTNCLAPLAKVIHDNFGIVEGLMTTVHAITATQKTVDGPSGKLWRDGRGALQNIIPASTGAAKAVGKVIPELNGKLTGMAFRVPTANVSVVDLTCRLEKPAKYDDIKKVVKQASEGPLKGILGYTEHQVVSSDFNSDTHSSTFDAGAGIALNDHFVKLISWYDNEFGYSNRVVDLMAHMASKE

[9] = target: T3, Bcl-2-like protein 10 (Homo sapiens, UniProt Q9HD36); assay: Bcl-B/TR3 peptide binding disruption – biochemical, fluorescence polarization, FITC-TR3 peptide, selectivity assay for Bfl-1 inhibitor project, primary screen (AID 748);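 further: fluorescence polarization from a fluorescein-labelled TR3 peptide binding purified Bcl-B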
T3 sequence (Q9HD36 whole entry): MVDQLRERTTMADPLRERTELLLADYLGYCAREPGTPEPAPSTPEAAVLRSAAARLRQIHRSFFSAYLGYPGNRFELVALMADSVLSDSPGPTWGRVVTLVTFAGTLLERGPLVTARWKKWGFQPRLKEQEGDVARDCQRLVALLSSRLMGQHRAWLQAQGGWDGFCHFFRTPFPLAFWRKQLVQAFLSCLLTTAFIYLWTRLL

[10] = target: Intestinal-type alkaline phosphatase (Mus musculus, UniProt P24822); assay: mouse intestinal alkaline phosphatase activators, dose response, biochemical, luminescence, uHTS hits (AID 488783); type: functional
Sequence of Intestinal-type alkaline phosphatase (Mus musculus, UniProt P24822) (P24822 whole entry): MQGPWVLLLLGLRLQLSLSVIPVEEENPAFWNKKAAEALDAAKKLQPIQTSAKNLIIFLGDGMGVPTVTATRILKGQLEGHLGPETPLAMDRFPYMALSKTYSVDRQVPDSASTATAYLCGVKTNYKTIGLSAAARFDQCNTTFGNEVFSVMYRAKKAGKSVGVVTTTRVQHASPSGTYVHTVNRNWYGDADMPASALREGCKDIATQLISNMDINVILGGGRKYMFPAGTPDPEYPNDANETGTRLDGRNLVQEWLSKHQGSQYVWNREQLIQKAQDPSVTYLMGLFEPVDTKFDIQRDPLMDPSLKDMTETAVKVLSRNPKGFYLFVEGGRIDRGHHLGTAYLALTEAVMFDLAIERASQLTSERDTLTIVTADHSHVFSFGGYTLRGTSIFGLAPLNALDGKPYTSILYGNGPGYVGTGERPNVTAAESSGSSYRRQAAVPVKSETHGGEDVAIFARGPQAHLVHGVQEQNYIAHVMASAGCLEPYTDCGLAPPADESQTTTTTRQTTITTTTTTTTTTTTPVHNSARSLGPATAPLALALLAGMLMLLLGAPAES

[11] = target: T4, Trace amine-associated receptor 1 (Homo sapiens, UniProt Q96RJ0); assay: Counterscreen for agonists of the human trace amine associated receptor 1 (hTAAR1): Fluorescence-based cell-based high throughput dose response assay to identify hTAAR1 agonist that also desensitize TAAR1 receptor response.; type: functional
T4 sequence (Q96RJ0 whole entry): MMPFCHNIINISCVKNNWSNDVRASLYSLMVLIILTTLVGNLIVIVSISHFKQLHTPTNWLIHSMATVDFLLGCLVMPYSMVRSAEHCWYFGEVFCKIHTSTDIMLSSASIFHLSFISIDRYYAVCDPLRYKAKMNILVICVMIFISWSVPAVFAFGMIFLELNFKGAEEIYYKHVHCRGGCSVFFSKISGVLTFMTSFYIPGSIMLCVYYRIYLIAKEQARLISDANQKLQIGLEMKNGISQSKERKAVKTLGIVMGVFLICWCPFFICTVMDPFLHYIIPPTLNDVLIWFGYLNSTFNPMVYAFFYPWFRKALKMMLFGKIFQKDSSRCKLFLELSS

[12] = cells; type: functional, cell-based
[13] = target: T5, SUMO-activating enzyme (Homo sapiens, UniProt Q9UBT2); assay: blockers of UBC9-mediated SUMO conjugation – biochemical, AlphaScreen, SUMOylation inhibitor project, confirmation (AID 2018); type: functional
T5 sequence (Q9UBE0 whole entry): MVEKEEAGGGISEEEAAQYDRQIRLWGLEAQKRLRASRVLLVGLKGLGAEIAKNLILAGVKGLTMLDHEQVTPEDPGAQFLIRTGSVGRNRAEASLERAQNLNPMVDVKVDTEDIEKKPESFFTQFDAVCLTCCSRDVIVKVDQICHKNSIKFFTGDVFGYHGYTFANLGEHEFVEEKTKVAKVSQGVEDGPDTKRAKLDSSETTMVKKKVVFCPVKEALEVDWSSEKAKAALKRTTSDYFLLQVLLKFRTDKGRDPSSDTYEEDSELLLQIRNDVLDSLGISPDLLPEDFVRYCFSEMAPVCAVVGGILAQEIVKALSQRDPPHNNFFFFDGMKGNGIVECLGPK
T5 sequence (Q9UBT2 whole entry): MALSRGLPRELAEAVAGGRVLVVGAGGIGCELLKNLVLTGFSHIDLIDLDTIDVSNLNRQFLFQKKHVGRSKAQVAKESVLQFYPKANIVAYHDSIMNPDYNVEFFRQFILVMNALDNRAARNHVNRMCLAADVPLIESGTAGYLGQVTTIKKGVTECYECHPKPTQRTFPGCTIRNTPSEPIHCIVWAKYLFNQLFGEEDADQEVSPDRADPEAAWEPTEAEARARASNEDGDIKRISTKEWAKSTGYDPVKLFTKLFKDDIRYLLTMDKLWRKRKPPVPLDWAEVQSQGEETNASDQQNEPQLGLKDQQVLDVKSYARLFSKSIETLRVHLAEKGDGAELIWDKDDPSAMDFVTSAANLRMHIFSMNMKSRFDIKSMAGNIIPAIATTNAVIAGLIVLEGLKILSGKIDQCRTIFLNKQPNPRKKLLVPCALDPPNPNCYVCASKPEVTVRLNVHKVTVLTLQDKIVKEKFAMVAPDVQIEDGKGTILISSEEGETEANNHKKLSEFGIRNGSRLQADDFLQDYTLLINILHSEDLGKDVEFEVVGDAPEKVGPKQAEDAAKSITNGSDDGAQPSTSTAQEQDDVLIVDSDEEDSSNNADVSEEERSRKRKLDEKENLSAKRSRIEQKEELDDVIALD

[14] = target: T5, SUMO-activating enzyme; assay: blockers of SAE1/SAE2–UBC9 SUMO transfer – biochemical, HTRF, uHTS, primary screen (AID 2006); type: protein-complex assay
[15] = target: Aspartyl aminopeptidase (Plasmodium falciparum 3D7, UniProt Q8I2J3)
[16] = target: T6, Zinc finger protein mex-5 (Caenorhabditis elegans, UniProt Q9XUB2); assay: potency of MEX-5 RNA-binding blockers – biochemical, C. elegans, fluorescence polarization, dose response (AID 1960)
T6 sequence (Q9XUB2 whole entry): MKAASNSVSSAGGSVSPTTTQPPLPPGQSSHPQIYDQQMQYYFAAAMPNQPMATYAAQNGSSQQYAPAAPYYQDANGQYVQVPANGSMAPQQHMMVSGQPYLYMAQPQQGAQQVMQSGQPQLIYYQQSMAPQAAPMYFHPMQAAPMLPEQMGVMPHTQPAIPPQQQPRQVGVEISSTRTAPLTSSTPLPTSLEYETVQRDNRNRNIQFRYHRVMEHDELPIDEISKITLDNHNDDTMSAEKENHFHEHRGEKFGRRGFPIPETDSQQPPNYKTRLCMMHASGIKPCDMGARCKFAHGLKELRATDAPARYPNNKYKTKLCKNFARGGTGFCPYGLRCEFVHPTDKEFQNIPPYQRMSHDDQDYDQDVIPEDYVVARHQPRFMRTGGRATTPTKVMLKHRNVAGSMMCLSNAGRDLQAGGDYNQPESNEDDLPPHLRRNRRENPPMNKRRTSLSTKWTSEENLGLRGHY

[17] = cells; type: functional, cell-based; remark: listed apart in the source
[18] = target: Dual specificity tyrosine-phosphorylation-regulated kinase 1A (Rattus norvegicus, UniProt Q63470); type: biochemical, Homo sapiens
[19] = target: Albumin (Bos taurus, UniProt P02769); assay: Counterscreen for inhibitors of T-cell receptor (TCR)-CD3 interaction: Fluorescence-based biochemical high throughput dose response assay to identify inhibitors of T-cell receptor (TCR)-CD3 interaction using a TAMRA-labeled BSA probe.; type: functional
Sequence of Albumin (P02769 whole entry): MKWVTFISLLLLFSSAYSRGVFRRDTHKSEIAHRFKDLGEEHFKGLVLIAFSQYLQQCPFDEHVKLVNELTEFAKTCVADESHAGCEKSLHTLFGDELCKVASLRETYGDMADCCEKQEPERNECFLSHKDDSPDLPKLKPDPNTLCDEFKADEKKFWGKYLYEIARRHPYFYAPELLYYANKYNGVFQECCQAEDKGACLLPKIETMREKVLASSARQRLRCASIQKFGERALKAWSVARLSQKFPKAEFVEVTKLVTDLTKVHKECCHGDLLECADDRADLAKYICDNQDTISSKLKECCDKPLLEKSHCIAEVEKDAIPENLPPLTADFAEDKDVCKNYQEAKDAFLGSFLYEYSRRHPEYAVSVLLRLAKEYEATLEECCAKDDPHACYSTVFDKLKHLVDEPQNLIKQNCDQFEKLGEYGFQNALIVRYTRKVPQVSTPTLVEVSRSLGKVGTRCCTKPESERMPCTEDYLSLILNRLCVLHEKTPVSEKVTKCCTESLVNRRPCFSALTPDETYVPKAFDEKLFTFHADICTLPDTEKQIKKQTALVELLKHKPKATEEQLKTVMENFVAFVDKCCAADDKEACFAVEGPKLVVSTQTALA

[20] = target: Procathepsin L (Homo sapiens, UniProt P07711)
Sequence of Procathepsin L (P07711 whole entry, the tested form may be a part): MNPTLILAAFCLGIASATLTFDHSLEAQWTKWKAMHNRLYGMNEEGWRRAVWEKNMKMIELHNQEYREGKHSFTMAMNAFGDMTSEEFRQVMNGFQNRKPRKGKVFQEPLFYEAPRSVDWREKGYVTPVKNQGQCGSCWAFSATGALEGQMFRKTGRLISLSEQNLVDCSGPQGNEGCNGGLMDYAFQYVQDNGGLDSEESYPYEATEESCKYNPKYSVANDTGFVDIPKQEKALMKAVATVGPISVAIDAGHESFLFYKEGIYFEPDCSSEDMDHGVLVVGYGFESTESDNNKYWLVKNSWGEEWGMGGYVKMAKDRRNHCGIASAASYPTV

[21] = target: T7, RNA-binding protein pos-1 (Caenorhabditis elegans, UniProt G5EF15); assay: disruptors of C. elegans POS-1 RNA interaction – biochemical, fluorescence polarization, dose response (AID 1964);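 further: purified POS-1 fused to maltose binding protein made in E. coli; potency of compounds blocking POS-1 binding to fluorescent RNA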
T7 sequence (G5EF15 whole entry): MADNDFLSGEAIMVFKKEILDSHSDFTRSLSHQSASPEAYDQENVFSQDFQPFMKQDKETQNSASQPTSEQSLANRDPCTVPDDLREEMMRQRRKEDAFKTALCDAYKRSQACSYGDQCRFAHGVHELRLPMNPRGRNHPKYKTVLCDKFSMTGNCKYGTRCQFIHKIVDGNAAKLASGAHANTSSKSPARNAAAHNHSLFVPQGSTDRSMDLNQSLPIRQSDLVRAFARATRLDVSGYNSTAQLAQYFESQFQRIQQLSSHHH

[22] = target: T4, Trace amine-associated receptor 1; assay: Fluorescence-based cell-based high throughput dose response assay to identify agonists of the human trace amine associated receptor 1 (TAAR1).; type: functional
[23] = test system: HEK293; assay: cells; conditions: Homo sapiens
[24] = test system: HEK293; assay: cells; type: functional, cell-based; conditions: Homo sapiens
[25] = test system: HEK293; assay: cells; type: functional, cell-based; conditions: Homo sapiens; remark: listed apart in the source
[26] = test system: HEK293; assay: cells; type: functional, cell-based; conditions: Homo sapiens; remark: listed apart in the source
[27] = test system: HEK293; assay: inhibition of NOD1-driven NF-kB reporter – cell-based, luminescence, uHTS, primary screen (AID 1578); type: functional; conditions: Homo sapiens
[28] = target: T8, Microphthalmia-associated transcription factor (Homo sapiens, UniProt O75030); assay: reducers of TRPM1 reporter luminescence, concentration series – cell-based, SK-MEL-5, cherry-picked, set 3, MITF inhibitor project, dose response (AID 493073); type: functional;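 further: SK-MEL-5 melanoma cells with luciferase driven by the MITF target TRPM1 promoter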
T8 sequence (O75030 whole entry): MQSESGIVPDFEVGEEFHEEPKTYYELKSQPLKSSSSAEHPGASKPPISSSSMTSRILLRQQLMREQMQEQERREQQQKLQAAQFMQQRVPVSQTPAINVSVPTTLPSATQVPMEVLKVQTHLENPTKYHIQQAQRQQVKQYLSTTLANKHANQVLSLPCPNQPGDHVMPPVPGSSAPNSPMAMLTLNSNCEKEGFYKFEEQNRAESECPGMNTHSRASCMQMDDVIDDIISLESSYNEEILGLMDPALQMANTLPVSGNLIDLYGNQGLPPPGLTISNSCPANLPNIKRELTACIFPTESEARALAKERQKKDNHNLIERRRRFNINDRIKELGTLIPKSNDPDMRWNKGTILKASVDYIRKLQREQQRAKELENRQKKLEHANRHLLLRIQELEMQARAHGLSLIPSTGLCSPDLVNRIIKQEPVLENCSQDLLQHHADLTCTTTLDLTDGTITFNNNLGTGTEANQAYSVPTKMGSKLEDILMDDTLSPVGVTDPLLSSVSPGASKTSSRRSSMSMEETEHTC

[29] = target: Tumor necrosis factor (Homo sapiens, UniProt P01375); assay: analog potency on TNFa NF-kB signaling – cell-based, revised, SAR follow-up (AID 2337); type: functional
Sequence of Tumor necrosis factor (P01375 whole entry, the tested form may be a part): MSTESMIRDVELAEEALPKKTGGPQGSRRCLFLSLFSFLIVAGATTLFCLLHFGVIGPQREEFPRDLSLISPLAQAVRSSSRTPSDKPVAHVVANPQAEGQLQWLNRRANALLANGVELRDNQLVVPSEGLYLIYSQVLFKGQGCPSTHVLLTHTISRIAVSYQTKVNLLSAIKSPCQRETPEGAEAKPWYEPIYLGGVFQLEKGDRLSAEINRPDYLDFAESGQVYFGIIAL

[30] = target: Nucleotide-binding oligomerization domain-containing protein 2 (Homo sapiens, UniProt Q9HC29); assay: inhibition of NOD2-driven NF-kB reporter – cell-based, luminescence, uHTS, HEK293 (AID 1566); type: functional
[31] = loss of viability in HepG2 cells – cell-based, CellTiter-Glo, cherry-picked, cytotoxicity control for Shn3 inhibitor project, dose response (AID 624134); type: functional
[32] = target: Nucleotide-binding oligomerization domain-containing protein 1 (Homo sapiens, UniProt Q9Y239); assay: blockers of NOD1 pathway activity – revised, SAR follow-up (AID 2333); type: functional
[33] = non-specific 3'UTR reporter inhibition in Clone20-Shn3RL – cell-based, Renilla luciferase, cherry-picked, counter-screen for Shn3 inhibitor project, dose response (AID 624133); type: functional
[34] = test system: HEK293; assay: NOD2 signaling inhibitors in MDP-stimulated cells, cell-based, uHTS, luminescence (AID 2001); type: functional; conditions: Homo sapiens
[35] = reduction of Shn3 3'UTR-driven luciferase in osteoblasts – cell-based, Clone20 osteoblasts, firefly luciferase, cherry-picked, dose response (AID 624132); type: functional;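 further: firefly luciferase luminescence from reporter carrying the Shn3 3'UTR in osteoblasts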

Sequence of Intestinal-type alkaline phosphatase (Homo sapiens, UniProt P09923) (P09923 whole entry): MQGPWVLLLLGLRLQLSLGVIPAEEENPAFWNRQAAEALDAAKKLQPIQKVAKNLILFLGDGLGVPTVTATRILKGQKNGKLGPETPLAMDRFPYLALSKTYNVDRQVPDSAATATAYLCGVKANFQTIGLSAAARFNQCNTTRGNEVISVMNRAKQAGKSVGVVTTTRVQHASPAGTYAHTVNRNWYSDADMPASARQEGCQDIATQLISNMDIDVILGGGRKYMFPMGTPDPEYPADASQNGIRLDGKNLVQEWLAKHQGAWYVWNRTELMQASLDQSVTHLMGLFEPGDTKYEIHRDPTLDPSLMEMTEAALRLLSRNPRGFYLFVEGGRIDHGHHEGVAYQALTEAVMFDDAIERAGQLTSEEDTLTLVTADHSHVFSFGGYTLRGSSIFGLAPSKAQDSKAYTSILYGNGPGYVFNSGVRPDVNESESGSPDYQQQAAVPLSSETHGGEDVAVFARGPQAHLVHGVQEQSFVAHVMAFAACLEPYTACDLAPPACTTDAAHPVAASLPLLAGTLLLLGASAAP

## O=C(CSc1nnc(-c2ccccc2)[nH]1)c1ccc(O)c(O)c1
[1]
  EC50: 42.4 µM (active)
[2]
  IC50: 11.4 µM (active)
[3]
  IC50: 8.31 µM (active)
[4]
  IC50: 15.2 µM (active)
[5]
  EC50: 36.4 µM (active)
[6]
  IC50: 5.9 µM (active)
[7]
  IC50: 15.6 µM (not active)
[8]
  IC50: > 100 µM (not active)
[9]
  IC50: 31.5 µM (active)
[10]
  EC50: 63.4 µM (active)

## O=C(N/N=C/c1ccc(O)c(O)c1)N/N=C/c1ccc(O)c(O)c1
[1]
  EC50: 66.2 µM (active)
[4]
  IC50: 0.73 µM (active)
[5]
  EC50: 79.4 µM (active)
[11]
  IC50: > 9.97 µM (active)
[12]
  EC50: > 29.9 µM (inactive)
[13]
  IC50: 0.69 µM (active)
[14]
  IC50: 2.11 µM (active)
[15]
  IC50: 2.79 µM (active)
[16]
  EC50: 4.86 µM (inconclusive)
[17]
  IC50: > 29.9 µM (inactive)
[18]
  AC50: 1.63 µM (active)
[19]
  IC50: > 94.1 µM (inactive)
[20]
  IC50: > 59.6 µM (not active)
[21]
  EC50: 16.2 µM (active)
[22]
  EC50: 0.647 µM (active)
[10]
  EC50: 4.96 µM (active)

## CCOC(=O)N1CCN(C(=O)c2ccc(Cn3c(=S)[nH]c4ccc(Br)cc4c3=O)cc2)CC1
[23]
  IC50: 18.7 µM (active)
[24]
  IC50: 9.03 µM (active)
[25]
  IC50: > 20 µM (inactive)
[26]
  IC50: > 20 µM (inactive)
[27]
  EC50: 4.23 µM (active)
[28]
  AC50: 3.52 µM (active)
[29]
  IC50: 4.69 µM (active)
[30]
  EC50: 4.18 µM (active)
[31]
  AC50: > 70 µM (inactive)
[32]
  IC50: 4.77 µM (active)
[33]
  AC50: 0.793 µM (active)
[34]
  IC50: 6.26 µM (active)
[35]
  AC50: 1.25 µM (active)
